# Measurements published in patent US11008334B2, “Compositions and methods for treating cancer” (The Regents of the University of California, priority 2012, dated 2021).
# Like-named read-outs stand apart in the source and are kept apart here.
# Molecular target: T1, K-RasG12C (1-169) (Homo sapiens, UniProt P01116, G12C)
# T1 construct: Un-tagged recombinant K-Ras G12C (1-169) at 4 μM in Buffer A; hexahistidine (cleaved yes); made in house; host or cells: Escherichia coli BL21 (DE)
# Assay: Mass spectrometric screen for extent of covalent labeling
# Format: binding
# Details: for percent covalent labeling at 10 µM: 10 micromolar; for Labeling % (10 micM) 24h: 10 micM compound, (plate) or (single) measurement
# Procedure: Un-tagged recombinant K-Ras G12C (1-169) at 4 μM in Buffer A was reacted with inhibitors at 200 μM or 10 μM (2% DMSO final). At 2, 6, and 24 hrs, 10 μL aliquots were removed and the reactions were stopped by addition of 1 μL 2% formic acid. The extent of modification was determined by mass spectrometry.
# [1] = 2 h, 2 hrs, read-out: Percent reduction in activity of compound at 10 micromolar relative to control (no compound), 2 hrs
# [2] = 6 h, 6 hrs, read-out: Percent reduction in activity of compound at 10 micromolar relative to control (no compound), 6 hrs
# [3] = 24 h, 24 hrs, read-out: Percent reduction in activity of compound at 10 micromolar relative to control (no compound), 24 hrs
Structure (SMILES),percent covalent labeling at 10 µM [1],percent covalent labeling at 10 µM [2],percent covalent labeling at 10 µM [3],Labeling % (10 micM) 24h,Labeling % (10 micM) 24h (Table 5)
O=C(NC1CCN(C(=O)CNc2cc(Cl)c(Cl)cc2I)CC1)C1CO1 (centres unmarked) [JO-02-152],≤ 5%,≤ 5%,20 to 40%,,
CN(C)C/C=C/C(=O)NC1CCN(C(=O)COc2ccc(Cl)cc2Cl)CC1 [Ras-007],≤ 5%,≤ 5%,≤ 5%,,
C=CS(=O)(=O)NCCNC(=O)COc1ccc(Cl)cc1Cl [JO-02-36A],≤ 5%,≤ 5%,≤ 5%,,
C=CS(=O)(=O)NC1CCN(C(=O)CCn2cnc3ccccc32)CC1 [Ras-012],≤ 5%,≤ 5%,≤ 5%,,
C=CC(=O)N1CCN(C(=O)CNc2cc(Cl)c(Cl)cc2O)CC1 [Ras-073],,20 to 40%,> 60%,,
C=CS(=O)(=O)N1CCN(C(=O)COc2ccc(Cl)cc2Cl)CC1 [JO-02-112D],≤ 5%,≤ 5%,20 to 40%,+++ (plate) (20%< +++ <=40%),+++ (plate) (20%< +++ <=40%)
C=CC(=O)N1CCN(C(=O)CNc2cc(Cl)c(Cl)cc2I)CC1 [JO-02-155],≤ 5%,5 to 20%,40 to 60%,,
C=CS(=O)(=O)NC1CCN(C(=O)CNc2cc(-c3ccccc3)c(Cl)cc2I)CC1 [Ras-086],,,40 to 60%,,
C=CC(=O)N1CCN(C(=O)COc2ccc(Cl)cc2Cl)CC1 [JO-02-172],,,,+ (plate) (+ <=5%),+ (plate) (+ <=5%)
C=CC(=O)NC1CCN(C(=O)COc2c(Cl)cc(Cl)cc2Cl)CC1 [Ras-002],≤ 5%,≤ 5%,≤ 5%,,
C=CS(=O)(=O)NC1CCN(C(=O)CNc2c(Cl)cc(Cl)c3nsnc23)CC1 [UP-I-185a],5 to 20%,20 to 40%,> 60%,+++++ (single) (60% < +++++),+++++ (single) (60% < +++++)
C=CC(=O)N1CC[C@@H](NC(=O)CNc2cc(Cl)c(Cl)cc2I)C1 [JO-02-157A (R)],≤ 5%,≤ 5%,≤ 5%,,
C=CC(=O)NC1CCN(C(=O)Cn2cnc3ccccc32)CC1 [Ras-003],≤ 5%,≤ 5%,≤ 5%,,
C=CS(=O)(=O)NC1CCN(C(=O)CNc2cc(OC)c(Cl)cc2OC)CC1 [Ras-064],≤ 5%,≤ 5%,20 to 40%,,
C=CS(=O)(=O)NC1CCN(C(=O)CSc2nc(C)cs2)CC1 [UP-I-165D],≤ 5%,≤ 5%,≤ 5%,,
C=CC(=O)NC1CCN(C(=O)CCn2ncc3ccccc32)CC1 [Ras-006],≤ 5%,≤ 5%,≤ 5%,,
C=CS(=O)(=O)NC1CCN(C(=O)CNc2cc(C(F)(F)F)c(Cl)cc2OC)CC1 [Ras-065],≤ 5%,5 to 20%,20 to 40%,,
C=CS(=O)(=O)N1CC2CN(C(=O)COc3ccc(Cl)cc3Cl)CC2C1 (centres unmarked) [JO-02-74A],≤ 5%,≤ 5%,20 to 40%,,
C=CS(=O)(=O)NC1CCN(C(=O)CN(C)c2cc(Cl)c(Cl)cc2I)CC1 [Ras-052],≤ 5%,≤ 5%,5 to 20%,,
C=CS(=O)(=O)NC1CCN(C(=O)CSc2n[nH]c(C)n2)CC1 [UP-I-164C],≤ 5%,≤ 5%,≤ 5%,,
C=CS(=O)(=O)NC1CCN(C(=O)CNc2cc(Cl)c(Cl)cc2I)CC1 [JO-02-144],≤ 5%,5 to 20%,> 60%,,
C=CC(=O)N1CCN(C(=O)CNc2cc(C(F)(F)F)c(Cl)cc2OC)CC1 [Ras-066],≤ 5%,≤ 5%,5 to 20%,,

# The remaining lines, values ahead:
percent covalent labeling at 10 µM [1],percent covalent labeling at 10 µM [2],percent covalent labeling at 10 µM [3],Labeling % (10 micM) 24h,Labeling % (10 micM) 24h (Table 5),Structure (SMILES)
≤ 5%,≤ 5%,5 to 20%,,,C=CS(=O)(=O)NCC(=O)N1CCC(NC(=O)COc2ccc(Cl)cc2Cl)CC1 [JO-02-56B]
≤ 5%,≤ 5%,5 to 20%,,,C=CS(=O)(=O)NC1CCN(C(=O)CSc2ccc(Cl)cc2C)CC1 [JO-02-31B]
≤ 5%,≤ 5%,≤ 5%,,,C=CS(=O)(=O)NC1CCN(C(=O)COc2ccc(Cl)cc2N(C)C)CC1 [Ras-034]
≤ 5%,5 to 20%,40 to 60%,++++ (plate) (40% < ++++ <=60%),++++ (plate) (40% < ++++ <=60%),C=CS(=O)(=O)NC1CCN(C(=O)COc2c(Cl)cc(Cl)c3c2OC(C)(C)O3)CC1 [UP-I-177C]
≤ 5%,≤ 5%,≤ 5%,,,C=CS(=O)(=O)NC1CCN(C(=O)COc2cc(OCCN)c(Cl)cc2Cl)CC1 [Ras-027]
≤ 5%,20 to 40%,> 60%,,,C=CS(=O)(=O)NC1CCN(C(=O)CNc2cc(Cl)c(Cl)cc2OC)CC1 [Ras-054]
≤ 5%,≤ 5%,5 to 20%,,,C=CS(=O)(=O)NC1CCN(C(=O)COc2cc(OCCO)c(Cl)cc2Cl)CC1 [Ras-048]
≤ 5%,≤ 5%,5 to 20%,,,C=CS(=O)(=O)NC1CCN(C(=O)COc2cc(N)c(Cl)cc2Cl)CC1 [Ras-019]
≤ 5%,≤ 5%,20 to 40%,,,C=CS(=O)(=O)NC1CCN(C(=O)COc2ccc(Cl)cc2C)CC1 [Ras-018]
≤ 5%,≤ 5%,≤ 5%,,,C=CS(=O)(=O)NC1CCN(C(=O)COc2ccc(Cl)cc2F)CC1 [Ras-017]
≤ 5%,≤ 5%,5 to 20%,,,C=CS(=O)(=O)NC1CCN(C(=O)COc2ccc(Cl)cc2CO)CC1 [Ras-051]
≤ 5%,≤ 5%,5 to 20%,,,C=CS(=O)(=O)NC1CCN(C(=O)COc2cc(C(=O)OC)c(Cl)cc2Cl)CC1 [Ras-037]
≤ 5%,≤ 5%,≤ 5%,,,C=CS(=O)(=O)NC1CCN(C(=O)COc2cc(-c3nn[nH]n3)c(Cl)cc2Cl)CC1 [Ras-045]
≤ 5%,5 to 20%,> 60%,,+++ (single) (20%< +++ <=40%),C#CCOc1cc(OCC(=O)N2CCC(NS(=O)(=O)C=C)CC2)c(Cl)cc1Cl [Ras-069]
≤ 5%,≤ 5%,≤ 5%,,,C=CS(=O)(=O)NC1CCN(C(=O)COc2cc(C(C)=O)c(Cl)cc2Cl)CC1 [Ras-043]
≤ 5%,≤ 5%,40 to 60%,++++ (plate) (40% < ++++ <=60%),++++ (plate) (40% < ++++ <=60%),C=CS(=O)(=O)NCC(=O)NC1CCN(C(=O)COc2ccc(Cl)cc2Cl)CC1 [JO-02-56A]
≤ 5%,≤ 5%,≤ 5%,,,C=CS(=O)(=O)NC1CCN(C(=O)COc2ccc(Cl)cc2C(=O)OC)CC1 [Ras-020]
≤ 5%,≤ 5%,≤ 5%,,,C=CS(=O)(=O)NC1CCN(C(=O)COc2ccc(Cl)cc2NC(C)=O)CC1 [Ras-016]
≤ 5%,≤ 5%,5 to 20%,,,C=CS(=O)(=O)NC1CCN(C(=O)CSc2ccc(Cl)cc2Cl)CC1 [JO-02-26]
≤ 5%,≤ 5%,5 to 20%,,,C=CS(=O)(=O)NC1CCN(C(=O)COc2cc(O)c(Cl)cc2Cl)CC1 [Ras-039]
≤ 5%,≤ 5%,≤ 5%,,,C=CS(=O)(=O)NCC1CCN(C(=O)COc2ccc(Cl)cc2Cl)CC1 [JO-02-112C]
≤ 5%,≤ 5%,≤ 5%,,,C=CS(=O)(=O)NC1CCN(C(=O)c2cc3cc(Cl)ccc3[nH]2)CC1 [JO-02-49A]
≤ 5%,≤ 5%,≤ 5%,,,C=CS(=O)(=O)NC1CCN(C(=O)COc2c(Cl)cc(Cl)cc2-c2ccno2)CC1 [UP-I-165B]
≤ 5%,≤ 5%,≤ 5%,,,C=CS(=O)(=O)NC1CCN(C(=O)COc2ccc(Cl)cc2)CC1 [JO-02-115A]
